25 compounds from patent US11827657B2, “Boron containing pyrazole compounds, compositions comprising them, methods and uses thereof” (BOEHRINGER INGELHEIM ANIMAL HEALTH USA INC., priority 2020, dated 2023) can be followed below.

JAK1, sequence (P23458 whole entry, species assumed): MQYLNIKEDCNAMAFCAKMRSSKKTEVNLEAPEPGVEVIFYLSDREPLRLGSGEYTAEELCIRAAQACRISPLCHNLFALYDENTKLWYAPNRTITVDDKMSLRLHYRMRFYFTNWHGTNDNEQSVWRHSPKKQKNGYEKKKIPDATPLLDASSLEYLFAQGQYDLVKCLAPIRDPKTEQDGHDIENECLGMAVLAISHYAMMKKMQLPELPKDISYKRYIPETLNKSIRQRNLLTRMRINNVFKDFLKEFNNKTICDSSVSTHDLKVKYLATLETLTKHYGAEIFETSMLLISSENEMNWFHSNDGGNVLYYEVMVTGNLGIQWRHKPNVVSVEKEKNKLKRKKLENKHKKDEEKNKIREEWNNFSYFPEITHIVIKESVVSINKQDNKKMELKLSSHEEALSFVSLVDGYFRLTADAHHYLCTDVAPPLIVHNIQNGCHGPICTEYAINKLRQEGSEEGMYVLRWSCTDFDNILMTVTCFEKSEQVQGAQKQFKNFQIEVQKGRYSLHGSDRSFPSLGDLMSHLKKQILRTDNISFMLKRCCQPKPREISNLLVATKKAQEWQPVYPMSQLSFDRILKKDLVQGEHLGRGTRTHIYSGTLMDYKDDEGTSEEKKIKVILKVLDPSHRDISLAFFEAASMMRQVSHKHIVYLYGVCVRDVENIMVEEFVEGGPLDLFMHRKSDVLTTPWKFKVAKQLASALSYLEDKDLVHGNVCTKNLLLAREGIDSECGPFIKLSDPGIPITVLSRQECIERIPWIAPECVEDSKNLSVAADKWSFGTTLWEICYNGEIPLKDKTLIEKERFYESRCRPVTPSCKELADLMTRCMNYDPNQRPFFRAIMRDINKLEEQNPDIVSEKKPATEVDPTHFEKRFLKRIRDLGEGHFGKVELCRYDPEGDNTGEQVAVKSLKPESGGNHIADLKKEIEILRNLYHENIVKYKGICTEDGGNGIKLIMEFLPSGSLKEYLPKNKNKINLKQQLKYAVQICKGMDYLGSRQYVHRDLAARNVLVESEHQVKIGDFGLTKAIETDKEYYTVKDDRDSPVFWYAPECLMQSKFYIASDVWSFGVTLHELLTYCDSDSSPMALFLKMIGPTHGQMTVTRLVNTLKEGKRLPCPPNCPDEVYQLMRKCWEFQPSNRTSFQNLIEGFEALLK

The test addresses JAK1 (Homo sapiens, UniProt P23458). Kind of test: Biochemical Kinase Assay (JAK), 33P-ATP filter-binding. Particulars: Biochemical Kinase Inhibition Assay; potency level of IC50; read-out: JAK1 (range). The protocol: Biochemical Kinase Assay Protocol (JAK) • Reagent: Base Reaction buffer; 20 mM Hepes (pH 7.5), 10 mM MgCl2, 1 mM EGTA, 0.02% Brij™ 35, 0.02 mg/ml BSA, 0.1 mM Na3VO4, 2 mM DTT, 1% DMSO, where required cofactors were added individually to each kinase reaction.
Reaction Procedure: • 1. Prepared indicated substrate in freshly prepared Base Reaction Buffer • 2. Delivered any required cofactors to the substrate solution above • 3. Delivered indicated kinase into the substrate solution and gently mix • 4. Delivered compounds in DMSO into the kinase reaction mixture by Acoustic technology (Echo550; nanoliter range), incubated for 20 minutes at room temperature • 5. Delivered 33P-ATP into the reaction mixture to initiate the reaction. • 6. Incubated kinase reaction for 2 hours at room temperature • 7. Reactions were spotted onto P81 ion exchange paper • 8. Detected kinase activity by filter-binding method.
Compounds according to the present invention were tested in the Biochemical Kinase Assay Protocol. The results are provided below in Table 1, wherein the potency levels A, B, and C in the columns labeled JAK1 (range) correspond to IC50 as follows: A<10 nM; B=10-50 nM and C>50 nM. The Example Number entries formatted ##a represent stereoisomer one and entries formatted ##b represent stereoisomer two.
With `CC1(C)OB(O)c2cc(Nc3nn([C@@H]4COCC[C@H]4C#N)cc3C(N)=O)ccc21` (single isomer, unassigned) [Example 36a, 1-[trans-4-cyanotetrahydro-2H-pyran-3-yl]-3-[(1-hydroxy-3,3-dimethyl-2,1-benzoxaborol-6-yl)amino]pyrazole-4-carboxamide], the IC50 was < 10 nM.
For the compound `CC1(C)OB(O)c2cc(Nc3nn([C@@H]4COCC[C@H]4C#N)cc3C(N)=O)ccc21` (single isomer, unassigned) [Example 36b, 1-[trans-4-cyanotetrahydro-2H-pyran-3-yl]-3-[(1-hydroxy-3,3-dimethyl-2,1-benzoxaborol-6-yl)amino]pyrazole-4-carboxamide], the IC50 was < 10 nM.
As for `N#C[C@@H]1CCOC[C@H]1n1cc(C(N)=O)c(Nc2cc(F)c3c(c2)COB3O)n1` (single isomer, unassigned) [Example 38a, 1-[trans-4-cyanotetrahydro-2H-pyran-3-yl]-3-[(7-fluoro-1-hydroxy-3H-2,1-benzoxaborol-5-yl)amino]pyrazole-4-carboxamide], the figure is 10 to 50 nM; as for `N#C[C@@H]1CCOC[C@H]1n1cc(C(N)=O)c(Nc2cc(F)c3c(c2)COB3O)n1` (single isomer, unassigned) [Example 38b, 1-[trans-4-cyanotetrahydropyran-3-yl]-3-[(7-fluoro-1-hydroxy-3H-2,1-benzoxaborol-5-yl)amino]pyrazole-4-carboxamide], < 10 nM.
In the case of `N#C[C@@H]1CCOC[C@H]1n1cc(C(N)=O)c(Nc2ccc3c(c2)COB3O)n1` (single isomer, unassigned) [Example 41a, 1-(trans-4-cyanotetrahydro-2H-pyran-3-yl)-3-((1-hydroxy-1,3-dihydrobenzo[c][1,2]oxaborol-5-yl)amino)-1H-pyrazole-4-carboxamide] it was < 10 nM.
Turning to `N#C[C@@H]1CCOC[C@H]1n1cc(C(N)=O)c(Nc2ccc3c(c2)COB3O)n1` (single isomer, unassigned) [Example 41b, 1-(trans-4-cyanotetrahydro-2H-pyran-3-yl)-3-((1-hydroxy-1,3-dihydrobenzo[c][1,2]oxaborol-5-yl)amino)-1H-pyrazole-4-carboxamide], the IC50 was < 10 nM.
In the case of `N#C[C@@H]1CCOC[C@H]1n1cc(C(N)=O)c(Nc2ccc3c(c2)B(O)OCC3)n1` (single isomer, unassigned) [Example 42a, 1-[trans-4-cyanotetrahydro-2H-pyran-3-yl]-3-[(1-hydroxy-3,4-dihydro-2,1-benzoxaborinin-7-yl)amino]pyrazole-4-carboxamide], the IC50 was < 10 nM.
As for `N#C[C@@H]1CCOC[C@H]1n1cc(C(N)=O)c(Nc2ccc3c(c2)B(O)OCC3)n1` (single isomer, unassigned) [Example 42b, 1-[trans-4-cyanotetrahydro-2H-pyran-3-yl]-3-[(1-hydroxy-3,4-dihydro-2,1-benzoxaborinin-7-yl)amino]pyrazole-4-carboxamide], the figure is < 10 nM.
Regarding `N#C[C@@H]1CCOC[C@H]1n1cc(C(N)=O)c(Nc2ccc3c(c2)C(Cl)=CB(O)O3)n1` (single isomer, unassigned) [Example 43a, 3-[(4-chloro-2-hydroxy-1,2-benzoxaborinin-6-yl)amino]-1-[trans-4-cyanotetrahydro-2H-pyran-3-yl]pyrazole-4-carboxamide], the IC50 was < 10 nM.
As for `N#C[C@@H]1CCOC[C@H]1n1cc(C(N)=O)c(Nc2ccc3c(c2)C(Cl)=CB(O)O3)n1` (single isomer, unassigned) [Example 43b, 3-[(4-chloro-2-hydroxy-1,2-benzoxaborinin-6-yl)amino]-1-[trans-4-cyanotetrahydro-2H-pyran-3-yl]pyrazole-4-carboxamide], the figure is < 10 nM; as for `N#C[C@@H]1CCOC[C@H]1n1cc(C(N)=O)c(Nc2cc(F)c3c(c2)C=CB(O)O3)n1` (single isomer, unassigned) [Example 44a, 1-[trans-4-cyanotetrahydro-2H-pyran-3-yl]-3-[(8-fluoro-2-hydroxy-1,2-benzoxaborinin-6-yl)amino]pyrazole-4-carboxamide], < 10 nM; as for `N#C[C@@H]1CCOC[C@H]1n1cc(C(N)=O)c(Nc2cc(F)c3c(c2)C=CB(O)O3)n1` (single isomer, unassigned) [Example 44b, 1-[trans-4-cyanotetrahydro-2H-pyran-3-yl]-3-[(8-fluoro-2-hydroxy-1,2-benzoxaborinin-6-yl)amino]pyrazole-4-carboxamide], < 10 nM.
As to `CC1=Cc2cc(Nc3nn([C@@H]4CCC[C@H]4C#N)cc3C(N)=O)cc(F)c2OB1O` (single isomer, unassigned) [Example 45a, 1-[trans-2-cyanocyclopentyl]-3-[(8-fluoro-2-hydroxy-3-methyl-1,2-benzoxaborinin-6-yl)amino]pyrazole-4-carboxamide], the IC50 was < 10 nM.
With `Cc1cc2c(cc1Nc1nn([C@@H]3COCC[C@H]3C#N)cc1C(N)=O)C=CB(O)O2` (single isomer, unassigned) [Example 46a, 1-(trans-4-cyanotetrahydro-2H-pyran-3-yl)-3-((2-hydroxy-7-methyl-2H-benzo[e][1,2]oxaborinin-6-yl)amino)-1H-pyrazole-4-carboxamide], the IC50 is > 50 nM.
In the case of `Cc1cc2c(cc1Nc1nn([C@@H]3COCC[C@H]3C#N)cc1C(N)=O)C=CB(O)O2` (single isomer, unassigned) [Example 46b, 1-(trans-4-cyanotetrahydro-2H-pyran-3-yl)-3-((2-hydroxy-7-methyl-2H-benzo[e][1,2]oxaborinin-6-yl)amino)-1H-pyrazole-4-carboxamide], the IC50 is > 50 nM.
As for `CC1=CB(O)Oc2c(C)cc(Nc3nn([C@@H]4COCC[C@H]4C#N)cc3C(N)=O)cc21` (single isomer, unassigned) [Example 47a, 1-[trans-4-cyanotetrahydro-2H-pyran-3-yl]-3-[(2-hydroxy-4,8-dimethyl-1,2-benzoxaborinin-6-yl)amino]pyrazole-4-carboxamide], the figure is < 10 nM; as for `CC1=CB(O)Oc2c(C)cc(Nc3nn([C@@H]4COCC[C@H]4C#N)cc3C(N)=O)cc21` (single isomer, unassigned) [Example 47b, 1-[trans-4-cyanotetrahydro-2H-pyran-3-yl]-3-[(2-hydroxy-4,8-dimethyl-1,2-benzoxaborinin-6-yl)amino]pyrazole-4-carboxamide], < 10 nM.
On to `CC(C)C1=Cc2cc(Nc3nn([C@@H]4COCC[C@H]4C#N)cc3C(N)=O)ccc2OB1O` (single isomer, unassigned) [Example 48a, 1-(trans-4-cyanotetrahydro-2H-pyran-3-yl)-3-((2-hydroxy-3-isopropyl-2H-benzo[e][1,2]oxaborinin-6-yl)amino)-1H-pyrazole-4-carboxamide], for which the IC50 is < 10 nM.
In the case of `CC(C)C1=Cc2cc(Nc3nn([C@@H]4COCC[C@H]4C#N)cc3C(N)=O)ccc2OB1O` (single isomer, unassigned) [Example 48b, 1-(trans-4-cyanotetrahydro-2H-pyran-3-yl)-3-((2-hydroxy-3-isopropyl-2H-benzo[e][1,2]oxaborinin-6-yl)amino)-1H-pyrazole-4-carboxamide] it was < 10 nM; in that of `N#C[C@@H]1CCOC[C@H]1n1cc(C(N)=O)c(Nc2ccc3c(c2)C=CB(O)O3)n1` (single isomer, unassigned) [Example 51a, 1-[trans-4-cyanotetrahydro-2H-pyran-3-yl]-3-[(2-hydroxy-1,2-benzoxaborinin-6-yl)amino]pyrazole-4-carboxamide], < 10 nM; in that of `N#C[C@@H]1CCOC[C@H]1n1cc(C(N)=O)c(Nc2ccc3c(c2)C=CB(O)O3)n1` (single isomer, unassigned) [Example 51b, 1-[trans-4-cyanotetrahydro-2H-pyran-3-yl]-3-[(2-hydroxy-1,2-benzoxaborinin-6-yl)amino]pyrazole-4-carboxamide], < 10 nM.
In the case of `N#C[C@@H]1CCOC[C@H]1n1cc(C(N)=O)c(Nc2cc(Cl)c3c(c2)COB3O)n1` (single isomer, unassigned) [Example 52a, 3-((7-chloro-1-hydroxy-1,3-dihydrobenzo[c][1,2]oxaborol-5-yl)amino)-1-(trans-4-cyanotetrahydro-2H-pyran-3-yl)-1H-pyrazole-4-carboxamide] it was < 10 nM; in that of `N#C[C@@H]1CCOC[C@H]1n1cc(C(N)=O)c(Nc2cc(Cl)c3c(c2)COB3O)n1` (single isomer, unassigned) [Example 52b, 3-((7-chloro-1-hydroxy-1,3-dihydrobenzo[c][1,2]oxaborol-5-yl)amino)-1-(trans-4-cyanotetrahydro-2H-pyran-3-yl)-1H-pyrazole-4-carboxamide], < 10 nM.
In the case of `N#C[C@@H]1CCOC[C@H]1n1cc(C(N)=O)c(Nc2cc3c(c(OC(F)(F)F)c2)OB(O)C=C3)n1` (single isomer, unassigned) [Example 53a, 1-[trans-4-cyanotetrahydro-2H-pyran-3-yl]-3-[[2-hydroxy-8-(trifluoromethoxy)-1,2-benzoxaborinin-6-yl]amino]pyrazole-4-carboxamide] it was > 50 nM; in that of `N#C[C@@H]1CCOC[C@H]1n1cc(C(N)=O)c(Nc2cc3c(c(OC(F)(F)F)c2)OB(O)C=C3)n1` (single isomer, unassigned) [Example 53b, 1-[trans-4-cyanotetrahydro-2H-pyran-3-yl]-3-[[2-hydroxy-8-(trifluoromethoxy)-1,2-benzoxaborinin-6-yl]amino]pyrazole-4-carboxamide], < 10 nM.
